Consider 29 molecules from patent US9149475B2, “Protein kinase C inhibitors and uses thereof” (Rigel Pharmaceuticals, Inc., priority 2009, dated 2015).

For the first test, the system named is Human primary T cells. Briefly: IL-2 ELISA, human primary T cell, anti-CD3+CD28+ (whole cell assay). It is filed as cell-based. The note with it: Homo sapiens, T-cell, 24 h, human primary T cells stimulated with anti-CD3 + anti-CD28, 24 hours. The method, boiled down:
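IL-2 secreted over 24 h at 37° C was quantified by ELISA after plate-bound αCD3 (1 μg/ml) and αCD28 (5 μg/ml) stimulation, or PMA (0.5 ng/ml) with ionomycin (0.1 μM) as counter-screen. Cells were IL-2-starved primary human T cells, expanded from volunteer PBMC and exposed to compound for 1 hr beforehand.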
(An ELISA detects its analyte on a solid surface through an enzyme-linked reagent.)
The IC50 is the concentration needed to halve the response being measured. In the case of `Cn1nnnc1-c1cc(Nc2ncc(F)c(NC3CC(C)(C)NC(C)(C)C3)n2)cc(C2CC2)c1` [III-147, N2-(3-cyclopropyl-5-(1-methyl-1H-tetrazol-5-yl)phenyl)-5-fluoro-N4-(2,2,6,6-tetramethylpiperidin-4-yl)pyrimidine-2,4-diamine], the half-inhibitory concentration (IC50) was < 250 nM.

Take `CC(C)n1nnnc1-c1cccc(Nc2ncc(F)c(NC3CC(C)(C)N(C)C(C)(C)C3)n2)c1` [III-70, 5-fluoro-N2-(3-(1-isopropyl-1H-tetrazol-5-yl)phenyl)-N4-(1,2,2,6,6-pentamethylpiperidin-4-yl)pyrimidine-2,4-diamine]: the half-inhibitory concentration (IC50) is < 250 nM.

Consider `CC1(C)CC(Nc2nc(Nc3ccc(OCCN4CCOCC4)c(OC(F)F)c3)ncc2F)CC(C)(C)N1` [Compound I-120, N2-(4-(2-morpholinoethoxy)-3-(difluoromethoxy)phenyl)-5-fluoro-N4-(2,2,6,6-tetramethylpiperidin-4-yl)pyrimidine-2,4-diamine], for which the IC50 was > 1000 nM.

For the molecule `CN1C(C)(C)CC(Nc2nc(Nc3cc(OCCCn4cccc4)cc(C(F)(F)F)c3)ncc2F)CC1(C)C` [Compound I-49, N2-(3-(3-(1H-pyrrol-1-yl)propoxy)-5-(trifluoromethyl)phenyl)-5-fluoro-N4-(1,2,2,6,6-pentamethylpiperidin-4-yl)pyrimidine-2,4-diamine], the IC50 is 500 to 1000 nM.

In the case of `CN1C(C)(C)CC(Nc2nc(Nc3ccc(OCCCN4CCOCC4)c(OC(F)F)c3)ncc2F)CC1(C)C` [Compound I-48, N2-(4-(3-morpholinopropoxy)-3-(difluoromethoxy)phenyl)-5-fluoro-N4-(1,2,2,6,6-pentamethylpiperidin-4-yl)pyrimidine-2,4-diamine], the concentration for half-maximal inhibition (IC50) is < 250 nM.

Take `CN1C(C)(C)CC(Nc2nc(Nc3ccc(OC4COC4)c(-c4nnnn4C)c3)ncc2F)CC1(C)C` [III-127, 5-fluoro-N2-(3-(1-methyl-1H-tetrazol-5-yl)-4-(oxetan-3-yloxy)phenyl)-N4-(1,2,2,6,6-pentamethylpiperidin-4-yl)pyrimidine-2,4-diamine]: the half-maximal inhibitory concentration (IC50) was < 250 nM.

On to `CC(C)Oc1ccc(Nc2ncc(F)c(NC3CC(C)(C)NC(C)(C)C3)n2)cc1N(C)C(C)C` [III-65, 5-fluoro-N2-(4-isopropoxy-3-(isopropyl(methyl)amino)phenyl)-N4-(2,2,6,6-tetramethylpiperidin-4-yl)pyrimidine-2,4-diamine], for which the IC50 was > 1000 nM.

Regarding `CN1C(C)(C)CC(Nc2nc(Nc3cc(F)cc(OCCn4cncn4)c3)ncc2F)CC1(C)C` [Compound I-40, N2-(3-(2-(1H-1,2,4-triazol-1-yl)ethoxy)-5-fluorophenyl)-5-fluoro-N4-(1,2,2,6,6-pentamethylpiperidin-4-yl)pyrimidine-2,4-diamine], the concentration for half-maximal inhibition (IC50) was in the range of 500 to 1000 nM.

Turning to `CN1C(C)(C)CC(Nc2nc(Nc3ccc4c(c3)OCC(CN3CCCCC3)O4)ncc2F)CC1(C)C` (centres unmarked) [II-5, 5-fluoro-N2-(2,3-dihydro-2-((piperidin-1-yl)methyl)benzo[b][1,4]dioxin-6-yl)-N4-(1,2,2,6,6-pentamethylpiperidin-4-yl)pyrimidine-2,4-diamine], the IC50 is > 1000 nM.

`[2H]C([2H])([2H])N1C(C)(C)CC(Nc2nc(Nc3cccc(-n4cnnn4)c3)ncc2F)CC1(C)C` [III-114, 5-fluoro-N2-(3-(1H-tetrazol-1-yl)phenyl)-N4-(1-trideuteromethyl-2,2,6,6-tetramethylpiperidin-4-yl)pyrimidine-2,4-diamine]: the half-inhibitory concentration (IC50) was < 250 nM.

As for `Cc1nnnn1-c1cccc(Nc2ncc(F)c(NC3CC(C)N(C4CC4)C(C)C3)n2)c1` (centres unmarked) [III-8, N^4-(1-cyclopropyl-2,6-dimethylpiperidin-4-yl)-5-fluoro-N2-(3-(5-methyl-1H-tetrazol-1-yl)phenyl)pyrimidine-2,4-diamine], the IC50 is < 250 nM.

As for `[2H]C([2H])([2H])N1C(C)(C)CC(Nc2nc(Nc3cccc(-n4nnnc4C)c3)ncc2F)CC1(C)C` [III-115, 5-fluoro-N2-(3-(5-methyl-1H-tetrazol-1-yl)phenyl)-N4-(1-trideuteromethyl-2,2,6,6-tetramethylpiperidin-4-yl)pyrimidine-2,4-diamine], the IC50 was < 250 nM.

As to `Cn1nnnc1-c1cc(Nc2ncc(F)c(NC3CC(C)(C)NC(C)(C)C3)n2)ccc1OC1CCOCC1` [III-124, 5-fluoro-N2-(3-(1-methyl-1H-tetrazol-5-yl)-4-(tetrahydro-2H-pyran-4-yloxy)phenyl)-N4-(2,2,6,6-tetramethylpiperidin-4-yl)pyrimidine-2,4-diamine], the IC50 is > 1000 nM.

For `CC(C)N1CCC(Oc2ccc(Nc3ncc(F)c(NC4CC(C)(C)N(C)C(C)(C)C4)n3)cc2OC(F)F)CC1` [Compound I-105, N2-(4-(1-isopropylpiperidin-4-yloxy)-3-(difluoromethoxy)phenyl)-5-fluoro-N4-(1,2,2,6,6-pentamethylpiperidin-4-yl)pyrimidine-2,4-diamine], the IC50 was < 250 nM.

On to `CC1(C)CC(Nc2nc(Nc3cccc(-c4nnnn4C4CC4)c3)ncc2F)CC(C)(C)N1` [III-73, N2-(3-(1-cyclopropyl-1H-tetrazol-5-yl)phenyl)-5-fluoro-N4-(2,2,6,6-tetramethylpiperidin-4-yl)pyrimidine-2,4-diamine], for which the IC50 lay in the range of 500 to 1000 nM.

For the molecule `CC1(C)CC(Nc2nc(Nc3ccc(Oc4ccncc4)c(OC(F)F)c3)ncc2C#N)CC(C)(C)N1` [Compound I-58, 4-(2,2,6,6-tetramethylpiperidin-4-ylamino)-2-(3-(difluoromethoxy)-4-(pyridin-4-yloxy)phenylamino)pyrimidine-5-carbonitrile], the IC50 was 500 to 1000 nM.

Take `CN1C(C)(C)CC(Nc2nc(Nc3cccc(-c4nnnn4CCN4CCOCC4)c3)ncc2F)CC1(C)C` [III-76, 5-fluoro-N2-(3-(1-(2-morpholinoethyl)-1H-tetrazol-5-yl)phenyl)-N4-(1,2,2,6,6-pentamethylpiperidin-4-yl)pyrimidine-2,4-diamine]: the 50% inhibitory concentration (IC50) was in the range of 500 to 1000 nM.

Take `CC1(C)CC(Nc2nc(Nc3ccc(OCCn4cncn4)c(OC(F)F)c3)ncc2F)CC(C)(C)N1` [Compound I-25, N2-(4-(2-(1H-1,2,4-triazol-1-yl)ethoxy)-3-(difluoromethoxy)phenyl)-5-fluoro-N4-(2,2,6,6-tetramethylpiperidin-4-yl)pyrimidine-2,4-diamine]: the half-inhibitory concentration (IC50) is > 1000 nM.

On to `CN1C(C)(C)CC(Nc2nc(Nc3cc(OCCn4cncn4)cc(C(F)(F)F)c3)ncc2F)CC1(C)C` [Compound I-29, N2-(3-(2-(1H-1,2,4-triazol-1-yl)ethoxy)-5-(trifluoromethyl)phenyl)-5-fluoro-N4-(1,2,2,6,6-pentamethylpiperidin-4-yl)pyrimidine-2,4-diamine], for which the IC50 fell in the range of 500 to 1000 nM.

With `CN1C(C)(C)CC(Nc2nc(Nc3ccc(OCCN4CCOCC4)c(C(F)(F)F)c3)ncc2F)CC1(C)C` [Compound I-119, N2-(4-(2-morpholinoethoxy)-3-(trifluoromethyl)phenyl)-5-fluoro-N4-(1,2,2,6,6-pentamethylpiperidin-4-yl)pyrimidine-2,4-diamine], the IC50 was 250 to 500 nM.

`CN1C(C)(C)CC(Nc2nc(Nc3cc(OC4COC4)cc(-c4nnnn4C)c3)ncc2F)CC1(C)C` [III-146, 5-fluoro-N2-(3-(1-methyl-1H-tetrazol-5-yl)-5-(oxetan-3-yloxy)phenyl)-N4-(1,2,2,6,6-pentamethylpiperidin-4-yl)pyrimidine-2,4-diamine]: the concentration for half-maximal inhibition (IC50) was in the range of 250 to 500 nM.

With `CN1C(C)(C)CC(Nc2nc(Nc3ccc(Cl)c(-c4nnnn4C)c3)ncc2F)CC1(C)C` [III-131, N2-(4-chloro-3-(1-methyl-1H-tetrazol-5-yl)phenyl)-5-fluoro-N4-(1,2,2,6,6-pentamethylpiperidin-4-yl)pyrimidine-2,4-diamine], the half-inhibitory concentration (IC50) was < 250 nM.

Turning to `CCNC(=O)N1CCCC(Oc2c(F)cc(Nc3ncc(F)c(NC4CC(C)(C)NC(C)(C)C4)n3)cc2F)CC1` (centres unmarked) [III-85, 4-(2,6-difluoro-4-(5-fluoro-4-(2,2,6,6-tetramethylpiperidin-4-ylamino)pyrimidin-2-ylamino)phenoxy)-N-ethylazepane-1-carboxamide], the half-inhibitory concentration (IC50) is > 1000 nM.

Regarding `CC1(C)CC(Nc2nc(Nc3ccc(OC4CCOCC4)c(F)c3)ncc2F)CC(C)(C)N1` [III-109, 5-fluoro-N2-(3-fluoro-4-(tetrahydro-2H-pyran-4-yloxy)phenyl)-N4-(2,2,6,6-tetramethylpiperidin-4-yl)pyrimidine-2,4-diamine], the half-inhibitory concentration (IC50) was in the range of 500 to 1000 nM.

As to `CC1(C)CC(Nc2nc(Nc3ccc(OC4CCN(CCF)CC4)c(Cl)c3)ncc2F)CC(C)(C)N1` [III-96, N2-(3-chloro-4-(1-(2-fluoroethyl)piperidin-4-yloxy)phenyl)-5-fluoro-N4-(2,2,6,6-tetramethylpiperidin-4-yl)pyrimidine-2,4-diamine], the IC50 is < 250 nM.

For the molecule `CC(C)Oc1ncc(Nc2ncc(C#N)c(NC3CC(C)(C)NC(C)(C)C3)n2)cc1-c1nnnn1C` [Compound I-130, 2-(6-isopropoxy-5-(1-methyl-1H-tetrazol-5-yl)pyridin-3-ylamino)-4-(2,2,6,6-tetramethylpiperidin-4-ylamino)pyrimidine-5-carbonitrile], the IC50 is > 1000 nM.

Consider `CN1C(C)(C)CC(Nc2nc(Nc3ccc(OC4CCOCC4)c(F)c3)ncc2F)CC1(C)C` [III-24, 5-fluoro-N2-(3-fluoro-4-(tetrahydro-2H-pyran-4-yloxy)phenyl)-N4-(1,2,2,6,6-pentamethylpiperidin-4-yl)pyrimidine-2,4-diamine], for which the 50% inhibitory concentration (IC50) lay within 500 to 1000 nM.

For `CC1(C)CC(Nc2nc(Nc3ccc4c(c3)OCC(CN3CCCCC3)O4)ncc2F)CC(C)(C)N1` (centres unmarked) [II-7, 5-fluoro-N2-(2,3-dihydro-2-((piperidin-1-yl)methyl)benzo[b][1,4]dioxin-6-yl)-N4-(2,2,6,6-tetramethylpiperidin-4-yl)pyrimidine-2,4-diamine], the IC50 is > 1000 nM.

The test is the same for the next values; noted with them: human primary T cells stimulated with anti-CD3 + anti-CD28, 24 hours.
Take `CC1(C)CC(Nc2nc(Nc3ccc(F)c(-n4cnnn4)c3)ncc2C(N)=O)CC(C)(C)N1` [Compound I-125, 5-aminocarbonyl-N2-[4-fluoro-3-(1H-tetrazol-1-yl)]phenyl-N4-(2,2,6,6-tetramethylpiperidin-4-yl)-2,4-pyrimidinediamine]: the IC50 is 250 to 500 nM.
